The results in this text go back to patent US10300048B2, “Thiazolidinones as cellular anandamide uptake inhibitors and their use in the treatment of psychiatric or neurological disorders and inflammation, in particular neuroinflammation” (UNIVERSITAT BERN, priority 2014, dated 2019).

One assay deals with BALB/c mice. Put plainly: In vivo tetrad test in BALB/c mice. Conditions: 5.0 mg/kg i.p., vs. vehicle; for anti-nociceptive effect in the hot plate test / locomotion (RotaRod) / time spent in the immobile state (catalepsy, bar test): 60 min; for body temperature (tetrad test): 1 h post injection. The method, then:
In vivo Tetrad Test in BALB/c Mice
In mice cannabimimetic substances induce a characteristic profile of behavioral effects (tetrad) which include suppression of locomotion, antinociception, hypothermia and catalepsy (Martin et al., 1991, Pharmacol Biochem Behav, 40, 471-8; Wiley, 2003, Eur J Pharmacol, 471, 185-93; Howlett et al., 2002, Pharmacol Rev, 54, 161-202). Male BALB/c mice (8 weeks old, 20-25 g body weight) were housed under standard environmental conditions (n=5 per cage) at 22-24° C. under a 12 h to 12 h light-dark cycle supplied with food and water ad libitum. ETI-T compounds were dissolved in pure DMSO and administered intraperitoneally (i.p) at doses of 5.0 mg/kg in 20 μL of vehicle 60 min prior to evaluation of behavioural effects. The tetrad test battery was carried out as follows: Rectal temperature was determined using a Physitemp thermometer (Physitemp Instruments Inc., Clifton, N.J. with a thermocoupled probe 1-2 cm into the rectum. The temperature was measured 10 min before compound administration and 1 h post injection. Changes in rectal temperature were expressed as the difference between basal and post injection temperatures. Catalepsy was determined using the bar test where mice were placed on a bar oriented parallel to and approximately 4-5 cm off of the ground. The duration of the time a mouse remained motionless (except respiration) with its front paws on the bar was scored over 40 s. Hypomotility was determined using the RotaRod performance test based on a rotating rod with forced motor activity being applied to the mouse. The maximal duration of this test was about 120 s at a velocity of 4 rpm. Analgesia was determined by the hot plate test. Mice were place on a heated plate (54-56° C.) in a Plexiglas cylinder for a maximum of 2 min. […] All experiments were repeated independently on different days. Animals were handled according to the guidelines on use and care of experimental animals (Mexican Official Norm NOM-062-ZOO-1999 published by SAGARPA in the Diario Oficial del Gobierno Mexicano, 2001), which is in accordance with the Code of Ethics of the Directive 2010/63/EU.
(§1) Statistical analysis and IC50 values were determined using GraphPad® Prism 5.0 (GraphPad® Software, San Diego, Calif., US). Inhibition curves were obtained by non-linear regression using the built-in log(inhibitor) vs. response-variable slope (four parameters) function. Results were calculated as % of vehicle control of the corresponding fraction (cells, aqueous phase) if not mentioned else. In vivo results are shown in absolute values and were analyzed by a one-way ANOVA following a Tukey's multiple comparison test or student's t-test. If not indicated else the results were compared vs. vehicle (CTRL). *** P<0.001, ** P<0.01, * P<0.05, ns=not significant P>0.05.

Assay [1] deals with TNF-alpha and IL-1beta in brain. Put plainly: Endotoxemia mouse model (LPS), brain cytokines. The format is in vivo, mice. Conditions: 5 mg/kg i.p. 30 min prior to LPS 250 μg/100 g i.p., vs. vehicle, P<0.05. As to the method:
Male BALB/c mice were injected i.p. with test compounds (5 mg/kg) or vehicle (DMSO, 20 μL) 30 min prior to LPS administration (250 μg/100 g body weight) in 50 μL saline solution. The administrations were conducted between 9:00 and 10:00 am. 30 min prior to scarification, 20 units (200 μL) of Inhepar® were injected subcutaneously. […] The brain was immediately removed on ice and stored in liquid nitrogen. […] The concentrations of the cytokines in brain and plasma were measured using commercially available Luminex MagPix cytokines assay (BioRad) specific for mice, according to the manufacturer's instructions. The acquisition of the fluorescent signal was achieved by a charged-coupled device (CCD) imager. The concentration of the analytes was determined by MAGPIX xPONENT. The assays were run in triplicates and the concentrations were expressed in pg/mL based on a standard curve.
as §1

`COc1ccc(/C=C2\S/C(=N\c3ccc(OC)cc3)N(c3ccc(OC)cc3)C2=O)cc1` [Compound 5]: in the assay with BALB/c mice, the “anti-nociceptive effect in the hot plate test” value was “anti-nociceptive effect”; the “locomotion (RotaRod)” value is recorded as “reduced locomotion”; the “time spent in the immobile state (catalepsy, bar test)” value is on record as “increased time spent in the immobile state”; the “body temperature (tetrad test)” value is on record as “decreased body temperature”. In assay [1] (after 2 hours), the “IL-1beta level in total brain” value is recorded as “Decrease” and the “TNF-alpha level in total brain” value was “Decrease”. For the same compound, in assay [1] (after 8 hours), the “IL-1beta level in total brain” value is “Decrease” and the “TNF-alpha level in total brain” value is listed as “Decrease”.
For `COc1cc(/C=C2\S/C(=N\c3ccccc3)N(c3ccccc3)C2=O)ccc1O` [Compound 6], in the assay with BALB/c mice, the “anti-nociceptive effect in the hot plate test” value is given as “anti-nociceptive effect”, the “locomotion (RotaRod)” value is recorded as “reduced locomotion” and the “body temperature (tetrad test)” value was “decreased body temperature”.
On to `O=C1/C(=C/c2cc(Cl)c(O)c(Cl)c2)S/C(=N\c2ccccc2)N1Cc1ccco1` [Compound 23], for which, in the assay on BALB/c mice, the “anti-nociceptive effect in the hot plate test” value is reported as “anti-nociceptive effect”; the “time spent in the immobile state (catalepsy, bar test)” value was “increased time spent in the immobile state”; the “body temperature (tetrad test)” value is “decreased body temperature”.
